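All cell lines were grown in 96-well plates and treated with compound for 48 hours. Abbreviation: GI50, concentration required for 50% inhibition of growth.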 The source made the active and inactive calls. No stated cut-off is given here; in the data, active = GI50 up to about 1.1 µM and inactive = higher.
Tests used:
Assay in all cases: NCI tumour cell line growth inhibition, 48 h
DLD-1 = test system: DLD-1
LXFL 529 = test system: LXFL 529
KM-20L2 = test system: KM-20L2
RXF 631 = test system: RXF 631
HOP-18 = test system: HOP-18
DMS-273 = test system: DMS-273
M19-MEL = test system: M19-MEL
DMS-114 = test system: DMS-114
XF498 = test system: XF498

| SMILES | GI50 (DLD-1) | GI50 (LXFL 529) | GI50 (KM-20L2) | GI50 (RXF 631) | GI50 (HOP-18) | GI50 (DMS-273) | GI50 (M19-MEL) | GI50 (DMS-114) | GI50 (XF498) |
| --- | --- | --- | --- | --- | --- | --- | --- | --- | --- |
| CN(C)CCNC(=O)c1cccc2ccc(-c3ccc(-c4ccccc4)cc3)nc12 | 2.45 µM (inactive) | 1.83 µM (inactive) | 1.98 µM (inactive) | 1.76 µM (inactive) | 12.9 µM (inactive) | 1.69 µM (inactive) | 1.81 µM (inactive) | 1.7 µM (inactive) |  |
| O=C1C=CC=CC2CC=C[C@@H](O)C12 (stereo not given in full) | 25.1 µM (inactive) | 17.5 µM (inactive) | 21 µM (inactive) |  |  | 22.6 µM (inactive) | 16.8 µM (inactive) | 18.1 µM (inactive) |  |
| CCc1nc2cc(/N=N/c3c(O)ccc4ccccc34)ccc2[nH]1 | 15 µM (inactive) | 11.5 µM (inactive) | 19.6 µM (inactive) |  |  | 17.1 µM (inactive) | 18.9 µM (inactive) | 17.3 µM (inactive) |  |
| COc1cccc2c1[C@H]1OC(=O)NC1CCCCC2 (stereo not given in full) | > 100 µM (inactive) | > 100 µM (inactive) | > 100 µM (inactive) |  | > 100 µM (inactive) | > 100 µM (inactive) | > 100 µM (inactive) | > 100 µM (inactive) |  |
| O=C1CCN2C(=O)CCN12 |  | > 100 µM (inactive) |  |  |  |  | > 100 µM (inactive) | > 100 µM (inactive) | > 100 µM (inactive) |
| CCN(CC)c1ccc(/N=C2/C=CC(=O)c3ncccc32)c(C)c1 | 3.42 µM (inactive) | 2.48 µM (inactive) | 13.5 µM (inactive) | 14.2 µM (inactive) | 10.5 µM (inactive) | 8.3 µM (inactive) | 10.4 µM (inactive) | 3.9 µM (inactive) | 2.02 µM (inactive) |
| C/C(CCN(C)C)=N/O |  | 0.346 µM (active) | 8.47 µM (inactive) |  | 0.4 µM (active) |  | 0.798 µM (active) | 0.8 µM (active) | 17.8 µM (inactive) |
| COC(=O)NC(=O)c1cn(CCCOC(=O)CCCCCCCCC(=O)OCCCn2cc(C(=O)NC(=O)OC)c(=O)[nH]c2=O)c(=O)[nH]c1=O | > 100 µM (inactive) | > 100 µM (inactive) | > 100 µM (inactive) | 50.9 µM (inactive) | > 100 µM (inactive) | > 100 µM (inactive) | > 100 µM (inactive) | > 100 µM (inactive) | 19.3 µM (inactive) |
| O=C(Nc1c(O)[nH]c(=S)[nH]c1=O)c1ccccc1 | > 100 µM (inactive) | > 100 µM (inactive) | > 100 µM (inactive) |  | > 100 µM (inactive) |  | > 100 µM (inactive) | > 100 µM (inactive) |  |
| CN(C(=O)C12C3C4C1C1C2C3C41C(O)C(C)(C)C)C(C)(C)C (stereo not given) | > 100 µM (inactive) | > 100 µM (inactive) | > 100 µM (inactive) | > 100 µM (inactive) |  | > 100 µM (inactive) | > 100 µM (inactive) | > 100 µM (inactive) | > 100 µM (inactive) |
| CC(=O)NNc1nc(C)c(C(=O)/C=C/c2ccc(Cl)cc2)s1 | > 100 µM (inactive) |  | > 100 µM (inactive) |  | > 100 µM (inactive) | > 100 µM (inactive) | > 100 µM (inactive) | > 100 µM (inactive) |  |
| O=c1c2cc(Br)cc(Br)c2[nH]c(=S)n1-c1ccccc1 | > 100 µM (inactive) |  | > 100 µM (inactive) | > 100 µM (inactive) | 35.3 µM (inactive) | > 100 µM (inactive) | > 100 µM (inactive) | 56.2 µM (inactive) | 21.4 µM (inactive) |
| O=C(/C=C/c1ccc(OCCCOc2ccc(/C=C/C(=O)c3ccccc3)cc2)cc1)c1ccccc1 | > 100 µM (inactive) | > 100 µM (inactive) | > 100 µM (inactive) | 51.2 µM (inactive) |  | > 100 µM (inactive) | > 100 µM (inactive) | > 100 µM (inactive) |  |
| CCc1cc2c(c3[nH]ccc13)[C@@H](C)C[C@H]2C | 16.4 µM (inactive) | 18 µM (inactive) |  |  | 18.4 µM (inactive) | 18 µM (inactive) | 17.2 µM (inactive) | 19.9 µM (inactive) |  |
| CCOC(=O)NC(=O)c1cn(CCCO)c(=O)[nH]c1=O | > 100 µM (inactive) |  | > 100 µM (inactive) | > 100 µM (inactive) | > 100 µM (inactive) | > 100 µM (inactive) | > 100 µM (inactive) | > 100 µM (inactive) | > 100 µM (inactive) |
| CN(C)CC1CCCC(CN(C)C)C1=NOC(=O)c1ccccc1 (stereo not given) | > 100 µM (inactive) | > 100 µM (inactive) | > 100 µM (inactive) |  | > 81.8 µM (inactive) | > 100 µM (inactive) | > 100 µM (inactive) | > 100 µM (inactive) | > 100 µM (inactive) |
| CN(CCN(C)C(=O)CCOS(C)(=O)=O)C(=O)CCOS(C)(=O)=O | > 100 µM (inactive) | > 100 µM (inactive) | > 100 µM (inactive) |  | > 100 µM (inactive) | 74 µM (inactive) |  | > 100 µM (inactive) | > 100 µM (inactive) |
| CCOC(=O)C12CCCC1(O)N(NC(=O)OC)C(C)=C2C(=O)OC (stereo not given) | > 100 µM (inactive) | > 100 µM (inactive) | > 100 µM (inactive) | > 100 µM (inactive) | > 100 µM (inactive) | > 100 µM (inactive) | > 100 µM (inactive) | > 100 µM (inactive) | > 100 µM (inactive) |
| CCOC(=O)CCn1cnc(N)n1 | > 100 µM (inactive) | > 100 µM (inactive) | > 100 µM (inactive) | > 100 µM (inactive) | > 100 µM (inactive) | > 100 µM (inactive) | > 100 µM (inactive) | > 100 µM (inactive) | > 100 µM (inactive) |
| CSc1nc(NC2OCC(OC(C)=O)C(OC(C)=O)C2OC(C)=O)c2c(OC(C)=O)c(C)c(=O)oc2n1 (stereo not given) | > 100 µM (inactive) | > 100 µM (inactive) | > 100 µM (inactive) | > 100 µM (inactive) | > 100 µM (inactive) |  | > 100 µM (inactive) | > 100 µM (inactive) | > 100 µM (inactive) |
| CC1=C(C)C(=O)c2c(cc3ccc4ccccc4n23)C1=O | > 100 µM (inactive) | > 100 µM (inactive) |  | > 100 µM (inactive) | > 100 µM (inactive) | > 100 µM (inactive) | > 100 µM (inactive) | > 100 µM (inactive) |  |
| CSc1nc2[nH]c(=O)c(C)nc2c(=O)[nH]1 | > 100 µM (inactive) | > 100 µM (inactive) | > 100 µM (inactive) |  |  | > 100 µM (inactive) | > 100 µM (inactive) | > 100 µM (inactive) | > 100 µM (inactive) |
| COC(=O)C1C(=O)O[C@@H](c2ccc(OC)cc2)C1C(=O)OC (stereo not given in full) | > 100 µM (inactive) | > 100 µM (inactive) | > 100 µM (inactive) |  | > 100 µM (inactive) | > 100 µM (inactive) | > 100 µM (inactive) | > 100 µM (inactive) | > 100 µM (inactive) |
| CC1CCP(=O)(c2ccccc2)CC1 (stereo not given) | > 100 µM (inactive) | > 100 µM (inactive) | > 100 µM (inactive) | > 100 µM (inactive) |  | > 100 µM (inactive) | > 100 µM (inactive) | > 100 µM (inactive) | > 100 µM (inactive) |
| O=C(O)c1ccccc1NS(=O)(=O)c1ccc([N+](=O)[O-])cc1 |  | > 100 µM (inactive) | > 100 µM (inactive) | > 100 µM (inactive) | > 100 µM (inactive) | > 100 µM (inactive) |  |  | > 100 µM (inactive) |
| CCOC(=O)N1C(=O)C2C3C=CC(C2C1=O)C1C2C(=O)N(C(=O)OCC)C(=O)C2C31 (stereo not given) | > 87.3 µM (inactive) | > 100 µM (inactive) | > 77.1 µM (inactive) | > 100 µM (inactive) | 43.4 µM (inactive) | > 43.7 µM (inactive) | > 74.5 µM (inactive) | > 45.9 µM (inactive) | > 100 µM (inactive) |
